Data taken from ChEMBL document CHEMBL1201862, “PubChem BioAssay data set” (2004).
Active and inactive are the calls of the source.

Experiments:
[1] = inhibitors of Ran–importin-beta complex, dose response, biochemical, plate reader, dry powder (AID 493048); set-up: species or system Homo sapiens
[2] = Cytotoxicity screening for potential Inhibitors of Bacterial Capsule Biogenesis. [Related pubchem assays (depositor defined):AID488970]; assay type: functional
[3] = Shn3 3'UTR reporter inhibitors, dose response, cell-based, Clone20 osteoblasts, firefly luciferase, cherry-picked (AID 624132); assay type: functional;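 note: firefly luciferase luminescence from reporter carrying the Shn3 3'UTR in osteoblasts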
[4] = HepG2 cell cytotoxicity, dose response, cytotoxicity control for Shn3 inhibitor project, CellTiter-Glo, cherry-picked (AID 624134); assay type: functional, cell-based
[5] = control 3'UTR Renilla luciferase suppression, dose response, counter-screen for Shn3 inhibitor project, cell-based, Clone20-Shn3RL, cherry-picked (AID 624133); assay type: functional
[6] = HeLa cell cytotoxicity, dose response, cytotoxicity control for MgcRacGAP inhibitor project (AID 624300); assay type: functional
[7] = target: T1, Rac GTPase-activating protein 1 (Homo sapiens, UniProt Q9H0H5); assay: MgcRacGAP GTPase-activating activity inhibitors, confirmation, biochemical, ADP Hunter fluorescence, primary and confirmatory (AID 624330); assay type: functional
T1 sequence (Q9H0H5 whole entry): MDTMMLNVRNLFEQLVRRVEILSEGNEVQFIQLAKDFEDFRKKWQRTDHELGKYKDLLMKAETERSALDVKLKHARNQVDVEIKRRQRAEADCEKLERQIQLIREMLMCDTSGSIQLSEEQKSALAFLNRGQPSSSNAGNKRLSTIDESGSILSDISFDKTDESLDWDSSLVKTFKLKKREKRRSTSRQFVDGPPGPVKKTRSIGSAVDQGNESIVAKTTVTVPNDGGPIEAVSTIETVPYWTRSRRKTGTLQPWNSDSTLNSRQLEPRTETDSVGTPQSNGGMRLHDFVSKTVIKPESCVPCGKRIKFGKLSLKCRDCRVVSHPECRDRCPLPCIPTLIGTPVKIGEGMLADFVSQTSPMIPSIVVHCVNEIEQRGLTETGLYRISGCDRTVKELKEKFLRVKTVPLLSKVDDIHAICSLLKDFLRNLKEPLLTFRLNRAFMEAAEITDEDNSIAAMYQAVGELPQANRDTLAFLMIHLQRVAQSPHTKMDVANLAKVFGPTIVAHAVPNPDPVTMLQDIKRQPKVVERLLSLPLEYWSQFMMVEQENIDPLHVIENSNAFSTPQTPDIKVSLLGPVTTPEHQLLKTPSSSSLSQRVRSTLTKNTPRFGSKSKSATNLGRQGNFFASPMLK

[8] = target: T2, DNA repair protein RAD52 homolog (Homo sapiens, UniProt P43351); assay type: functional, biochemical
T2 sequence (P43351 whole entry): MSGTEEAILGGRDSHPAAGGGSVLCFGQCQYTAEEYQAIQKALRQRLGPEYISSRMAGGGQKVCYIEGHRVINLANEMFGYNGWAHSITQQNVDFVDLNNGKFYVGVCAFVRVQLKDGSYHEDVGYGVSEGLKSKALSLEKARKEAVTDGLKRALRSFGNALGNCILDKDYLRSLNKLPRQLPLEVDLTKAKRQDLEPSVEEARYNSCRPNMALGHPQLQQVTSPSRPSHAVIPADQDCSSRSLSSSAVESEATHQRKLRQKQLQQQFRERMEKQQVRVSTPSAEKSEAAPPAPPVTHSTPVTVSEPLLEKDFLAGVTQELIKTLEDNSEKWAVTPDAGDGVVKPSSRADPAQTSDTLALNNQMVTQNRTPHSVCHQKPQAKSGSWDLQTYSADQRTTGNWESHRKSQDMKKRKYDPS

Paired box protein Pax-8 = Paired box protein Pax-8 (Homo sapiens, UniProt Q06710); assay: inhibitors of PAX8-driven TPO luciferase reporter, dose response, RMG-I cells, cherry-pick (AID 687027); assay type: functional, cell-based;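 note: luciferase reporter driven by Pax8 target thyroperoxidase promoter measured by SteadyGlo luminescence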
[9] = target: T3, Histone-lysine N-methyltransferase NSD2 (Homo sapiens, UniProt O96028); assay type: biochemical
T3 sequence (O96028 whole entry): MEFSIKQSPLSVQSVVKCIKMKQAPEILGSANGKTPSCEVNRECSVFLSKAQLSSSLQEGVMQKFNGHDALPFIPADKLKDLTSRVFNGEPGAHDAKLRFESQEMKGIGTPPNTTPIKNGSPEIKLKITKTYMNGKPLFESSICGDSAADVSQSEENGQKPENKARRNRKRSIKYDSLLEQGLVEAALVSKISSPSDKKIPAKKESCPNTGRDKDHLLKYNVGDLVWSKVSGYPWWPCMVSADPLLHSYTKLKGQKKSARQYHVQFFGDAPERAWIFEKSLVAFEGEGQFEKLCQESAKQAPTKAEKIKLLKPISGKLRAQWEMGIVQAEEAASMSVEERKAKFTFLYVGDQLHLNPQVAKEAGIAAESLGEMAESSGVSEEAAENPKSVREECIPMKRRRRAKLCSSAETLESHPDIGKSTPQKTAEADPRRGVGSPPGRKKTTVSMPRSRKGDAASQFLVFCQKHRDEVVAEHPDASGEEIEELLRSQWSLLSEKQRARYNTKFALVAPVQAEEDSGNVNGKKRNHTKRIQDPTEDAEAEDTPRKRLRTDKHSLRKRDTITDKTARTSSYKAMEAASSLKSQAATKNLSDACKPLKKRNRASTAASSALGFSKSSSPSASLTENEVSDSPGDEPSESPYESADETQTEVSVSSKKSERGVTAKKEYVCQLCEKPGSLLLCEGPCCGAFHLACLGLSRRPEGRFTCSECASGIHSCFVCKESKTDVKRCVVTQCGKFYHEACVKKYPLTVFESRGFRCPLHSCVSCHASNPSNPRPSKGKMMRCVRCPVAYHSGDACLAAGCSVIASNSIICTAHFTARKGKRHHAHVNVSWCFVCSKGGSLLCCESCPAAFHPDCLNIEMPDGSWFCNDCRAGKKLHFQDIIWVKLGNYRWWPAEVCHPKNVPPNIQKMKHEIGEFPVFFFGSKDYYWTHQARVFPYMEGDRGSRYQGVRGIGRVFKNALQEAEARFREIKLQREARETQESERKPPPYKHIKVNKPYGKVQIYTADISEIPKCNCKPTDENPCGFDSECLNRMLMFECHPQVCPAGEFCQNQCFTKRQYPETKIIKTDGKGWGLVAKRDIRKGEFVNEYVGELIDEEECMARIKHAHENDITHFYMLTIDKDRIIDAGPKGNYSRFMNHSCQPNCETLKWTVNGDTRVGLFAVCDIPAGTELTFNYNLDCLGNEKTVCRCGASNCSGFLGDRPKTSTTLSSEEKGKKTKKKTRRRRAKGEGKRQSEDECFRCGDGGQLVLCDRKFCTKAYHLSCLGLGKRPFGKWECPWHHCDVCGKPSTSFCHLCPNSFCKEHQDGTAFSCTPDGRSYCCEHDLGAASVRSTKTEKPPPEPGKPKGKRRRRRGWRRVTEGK

[10] = Luminescence-based cell-based high throughput dose response assay to identify activators of the DAF-12 from the parasite S. stercoralis (ssDAF-12).; assay type: functional
[11] = target: T4, Oxysterols receptor LXR-beta (Homo sapiens, UniProt P55055); assay: LXR agonists, Gal4 luciferase reporter, dose response, counter-screen for ssDAF-12 agonist project, cell-based, luminescence, HEK293, S. stercoralis campaign (AID 720737); assay type: functional; conditions: read-out: IC50 (the source's name)
T4 sequence (P55055 whole entry): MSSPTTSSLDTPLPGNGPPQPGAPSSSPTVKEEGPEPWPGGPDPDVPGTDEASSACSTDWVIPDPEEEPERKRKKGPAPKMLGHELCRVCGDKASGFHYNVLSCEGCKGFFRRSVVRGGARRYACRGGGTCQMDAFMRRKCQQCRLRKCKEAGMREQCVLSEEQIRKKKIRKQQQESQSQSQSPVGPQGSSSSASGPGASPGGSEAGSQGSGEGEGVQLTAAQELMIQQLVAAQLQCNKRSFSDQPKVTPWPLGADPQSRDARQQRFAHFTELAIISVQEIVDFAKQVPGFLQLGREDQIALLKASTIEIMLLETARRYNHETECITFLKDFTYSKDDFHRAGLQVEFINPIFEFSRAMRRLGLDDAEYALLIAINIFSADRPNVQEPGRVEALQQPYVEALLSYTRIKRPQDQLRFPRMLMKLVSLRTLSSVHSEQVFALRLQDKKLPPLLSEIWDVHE

[12] = target: T5, Mannose-6-phosphate isomerase (Homo sapiens, UniProt P34949); assay: PMI enzyme inhibitors, confirmation, biochemical, fluorescence intensity (AID 1535)
T5 sequence (P34949 whole entry): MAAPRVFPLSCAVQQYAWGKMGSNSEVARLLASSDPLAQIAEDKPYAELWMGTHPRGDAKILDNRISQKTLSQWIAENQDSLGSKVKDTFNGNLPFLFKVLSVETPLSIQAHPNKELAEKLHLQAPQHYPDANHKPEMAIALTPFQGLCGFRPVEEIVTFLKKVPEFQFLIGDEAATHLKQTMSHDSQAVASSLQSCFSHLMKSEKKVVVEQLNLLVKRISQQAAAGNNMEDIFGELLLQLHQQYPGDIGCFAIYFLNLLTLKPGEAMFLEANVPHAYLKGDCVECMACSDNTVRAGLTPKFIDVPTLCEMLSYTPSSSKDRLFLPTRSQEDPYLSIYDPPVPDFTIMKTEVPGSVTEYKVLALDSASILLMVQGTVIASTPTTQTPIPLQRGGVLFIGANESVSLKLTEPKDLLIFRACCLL

Phosphomannomutase 2 = Phosphomannomutase 2 (Homo sapiens, UniProt O15305); assay: Counter screen SAR assay for PMM2 inhibitors via a fluorescence intensity assay. [Related pubchem assays (depositor defined):AID1545, AID1574]
[13] = target: Phosphoethanolamine/phosphocholine phosphatase (Homo sapiens, UniProt Q8TCT1); assay: SAR assay for compounds that inhibit PHOSPHO1. [Related pubchem assays (depositor defined):AID1545, AID1565, AID1574]
Phosphoethanolamine/phosphocholine phosphatase, sequence (Q8TCT1 whole entry): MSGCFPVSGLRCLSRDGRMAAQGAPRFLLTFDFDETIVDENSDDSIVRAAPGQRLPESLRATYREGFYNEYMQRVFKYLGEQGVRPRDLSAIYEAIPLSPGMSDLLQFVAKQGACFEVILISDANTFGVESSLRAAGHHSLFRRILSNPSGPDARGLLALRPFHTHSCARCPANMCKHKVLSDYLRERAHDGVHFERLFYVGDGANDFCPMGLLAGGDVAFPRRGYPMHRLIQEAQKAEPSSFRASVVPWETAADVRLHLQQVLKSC

Paired box protein Pax-8, sequence (Q06710 whole entry): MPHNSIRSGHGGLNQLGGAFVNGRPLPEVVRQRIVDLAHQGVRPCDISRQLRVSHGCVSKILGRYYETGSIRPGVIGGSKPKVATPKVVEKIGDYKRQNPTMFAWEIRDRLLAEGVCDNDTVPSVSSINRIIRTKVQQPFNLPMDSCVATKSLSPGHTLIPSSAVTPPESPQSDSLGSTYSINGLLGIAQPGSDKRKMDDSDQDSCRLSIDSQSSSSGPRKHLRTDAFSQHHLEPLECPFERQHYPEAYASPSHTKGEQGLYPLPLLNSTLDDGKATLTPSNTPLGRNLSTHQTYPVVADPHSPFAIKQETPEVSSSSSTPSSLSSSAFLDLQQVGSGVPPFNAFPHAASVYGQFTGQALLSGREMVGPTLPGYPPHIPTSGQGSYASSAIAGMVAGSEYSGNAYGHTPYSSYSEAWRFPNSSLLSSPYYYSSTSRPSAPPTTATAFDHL
Phosphomannomutase 2, sequence (O15305 whole entry): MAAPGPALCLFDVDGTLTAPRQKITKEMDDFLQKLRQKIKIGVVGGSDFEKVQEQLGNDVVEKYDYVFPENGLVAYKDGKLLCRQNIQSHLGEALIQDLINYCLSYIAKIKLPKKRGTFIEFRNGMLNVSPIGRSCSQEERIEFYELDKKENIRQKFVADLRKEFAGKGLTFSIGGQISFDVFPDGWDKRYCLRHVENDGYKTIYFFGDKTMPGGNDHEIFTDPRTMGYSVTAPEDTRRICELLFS

Cc1ccc(S(=O)(=O)c2cc3c(=O)n4cccc(C)c4nc3n(C3CCCCC3)c2=N)cc1
active: AC50 [1] 410 µM

CCN(CC)CCCNc1[nH]c2ccccc2c2nc3ccc(OC)cc3c1-2
active: CC50 [2] 1.41 µM | AC50 [3] 12.3 µM | AC50 [4] 4.9 µM | AC50 [5] 11.6 µM | CC50 [6] 15.1 µM | IC50 [7] 31.7 µM | AC50 [8] < 150 nM | AC50 (Paired box protein Pax-8) 6.91 µM
inactive: AC50 [9] > 20 µM | IC50 [10] > 67.5 µM | EC50 [11] > 67.5 µM

O=c1c2ccccc2sn1-c1ccc(F)c(Cl)c1
inactive: IC50 [12] > 50 µM | IC50 (Phosphomannomutase 2) > 100 µM | IC50 [13] 1.79 µM
